What was measured:
[1] = tested on: human adult dermal fibroblasts HDFa; design: method as in Bär et al. [33]; conditions: MTT, value marked * ref Bär et al. [33]; cited from earlier work
[2] = tested on: HeLa cervix carcinoma cells; design: method as in Bär et al. [33]; conditions: MTT, value marked * ref Bär et al. [33]; cited from earlier work
[3] = tested on: HCT-116^p53−/− (p53 knockout mutant) colon carcinoma cells; design: method as in Bär et al. [33]; conditions: MTT, value marked * ref Bär et al. [33]; cited from earlier work
[4] = tested on: HCT-116^wt colon carcinoma cells; design: method as in Bär et al. [33]; conditions: MTT, value marked * ref Bär et al. [33]; cited from earlier work
518A2 melanoma cells [5] = assay: ROS assay (NBT); type: cell-based, human; conditions: 518A2 cells, 1 µM and 5 µM, 24 h
Experimental: To determine cellular ROS levels, 2,2′-bis(4-nitrophenyl)-5,5′-diphenyl-3,3′-(3,3′-dimethoxy-4,4′-diphenylene) di-tetrazolium chloride (NBT) was used. The assay is based on the reduction of a yellow NBT tetrazolium salt to a blue formazan dye. 518A2 melanoma cells were seeded in 96-well flat bottom microtiter plates (Sarstedt) with 100 µL per well and a cell density of 0.1 × 10^6 cells per mL. The cells were allowed to grow overnight, followed by substance treatment with 11.1 µL of tenfold concentrated test compound dilutions and further incubated for 24 h. Then plates were centrifuged, the medium was discarded and 50 µL per well of NBT solution (0.1% in PBS) was added. The plates were further incubated for 4 h, centrifuged again and the medium was discarded. After that, 50 µL of 2M KOH solution and 65 µL DMSO had been added per well, incubation was continued for 30 min. The absorbances at 630 nm und 405 nm were measured, using a plate reader (Tecan). The background absorbance (405 nm) was subtracted from the formazan signal (630 nm). The resulting absorbance is directly proportional to the reactive oxygen species level. The control value was normalized to 100% ROS level, and accordingly, the viability of cells treated with test compounds was calculated. Means and SD were calculated from at least four independent experiments.

[6] = Stability in cell culture medium by UV/Vis spectroscopy; type: physicochemical; conditions: 0–30 min and 3 days
Description: In a further corroboration of the complex stability, the similarity of the chalcogens sulfur and selenium was exploited. The selenolato complex 10 was synthesized and examined for its stability under identical conditions. Since ^77Se is a 1/2 spin nucleus with roughly 8% natural abundance, its compounds can be investigated directly. Depending on whether a break in the Se–Au or the Au–PR3 bond would occur, the shift would change by several hundred ppm and serve as unequivocal evidence. […] In addition, we investigated the stability of complexes 1 and 5 as representatives of the series of purines and purine nucleosides, respectively, in cell culture medium by UV/Vis spectroscopy.

518A2 melanoma cells [7] = assay: Comet assay; type: cell-based, human; conditions: 518A2 cells, 3.3 µM and 33 µM
Experimental: 518A2 melanoma cells were seeded at a concentration of 0.03 × 10^6 cells/mL and a volume of 2 mL seeded in 6-well plates and incubated overnight (37 °C, 95% humidity, 5% CO2). In addition, slides were coated with 1.5% agarose and allowed to harden before being stored in a moist place until the next day. On the second day, a 100-fold substance pre-dilution was added to the cells followed by a further incubation of 3–5 h. The selected concentration range was based on Mendonça et al.. Subsequently, the cells were harvested with trypsin and the cell number was adjusted to 0.02 × 10^6 cells/mL. 0.5% agarose solution was prepared and tempered to a maximum of 50 °C. After mixing 0.4 mL of cell suspension with 1.2 mL of tempered agarose, 200 µL was pipetted onto each of the previously coated slides. After these had hardened, a one-hour incubation followed at 4 °C in lysis buffer. The samples were then electrophoresed at 11 V for 20 min and then incubated for 15 min in neutralization buffer. Finally, the DNA was stained with 30 µL each of 1% ethidium bromide for 30 min, before the slides were washed with PBS for subsequent documentation under a fluorescent microscope with UV excitation (Zeiss Axiovert 135, Ex/Em 300 nm/605 nm).

[8] = tested on: circular plasmid pBR322 DNA; assay: Electrophoretic mobility shift assay (EMSA); type: binding
Experimental: To distinguish whether the DNA interaction is of an electrostatic or covalent nature, a second DNA interaction assay was conducted. 1.5 µg of circular plasmid pBR322 DNA were incubated in TE buffer (10 mM Tris–Cl, 1 mM EDTA, pH 8.0) with different concentrations of test compounds (final concentrations; 5 µM, 10 µM, 25 µM and 50 µM), whereas a corresponding volume of DMSO was added to the control (0 µM) to a final volume of 20 µL of each sample. Samples ware incubated for 16 h at 37 °C and subjected to 1% agarose gel electrophoresis in 0.5 × TBE buffer (45 mM Tris–Cl, 45 mM boric acid, 1.25 mM EDTA, pH 8.0) for 4 h at 66 V. Afterward, the agarose gel was stained for 20 min with EtdBr (10 µg/mL in 0.5 TBE buffer) solution and the result documented using UV excitation.

linear salmon sperm DNA = assay: Ethidium bromide saturation assay; type: binding
Experimental: The interaction of the complexes with linear DNA was assessed using the EtdBr assay. Ethidium bromide intercalates into DNA enhancing its fluorescence, while intercalation is hindered by alterations of the DNA structure e.g., by small molecules interfering with DNA [17]. In wells of a 96-well black flat bottom microtiter plates a solution of 1 µg linear salmon sperm DNA (ThermoFisher) in TE buffer (10 mM Tris–Cl, 1 mM EDTA, pH 8.0) was treated with concentration series (final concentrations; 25 µM, 50 µM, 75 µM and 100 µM) of the compounds, a corresponding amount of DMSO was used as a control (0 µM). After an incubation period of 2 h at 37 °C, 100 µL per well of ethidium bromide solution (10 µg/mL in TE buffer) was added and the plate was incubated for 5 min in the dark. Background samples were prepared analogously but without DNA addition. EtdBr–DNA adduct fluorescence was monitored at an excitation wavelength of 535 nm and an emission wavelength of 595 nm. After background subtraction, changes in fluorescence intensity were calculated in relation to control (set to 100%). Means and SD were calculated from at least three independent experiments.

CC(=O)OC[C@H]1O[C@@H]([S-])[C@H](OC(C)=O)[C@@H](OC(C)=O)[C@@H]1OC(C)=O.CCP(CC)CC.[Au+] [Auranofin, auranofin]
IC50 [1]: 14 ± 1 µM
IC50 [2]: 2.6 ± 0.4 µM
IC50 [3]: 5 ± 0.2 µM
IC50 [4]: 11.9 ± 0.4 µM
Intracellular ROS level (518A2 melanoma cells [5]): highest ROS levels

OC[C@H]1O[C@@H](n2cnc3c([S][Au][PH](c4ccccc4)(c4ccccc4)c4ccccc4)ncnc32)[C@H](O)[C@@H]1O [Complex 5, (1,7-Dihydro-6H-purine-9-β-D-ribofuranosyl-6-thiolato) (triphenylphosphane) gold(I)]
Stability in cell culture medium (UV/Vis) [6]: stable under the test conditions
DNA damage (comet assay) (518A2 melanoma cells [7]): led to DNA damage
DNA interaction (EMSA) [8]: failed to reveal any positive effects
DNA interaction (ethidium bromide saturation) (linear salmon sperm DNA): failed to reveal any positive effects

Source: PMC9653339, “Revisiting the anticancer properties of phosphane(9-ribosylpurine-6-thiolato)gold(I) complexes and their 9H-purine precursors” (Journal of Biological Inorganic Chemistry, 2022)
